{"source": "patent US20070197556A1", "about": "“Fungicidal Mixtures” (priority 2004, published 2007)", "tested_on": "Pyrenophora teres", "assay": "activity against net blotch of barley caused by Pyrenophora teres, 1 day protective application", "assay_type": "in vivo", "details": "individual active compound, 5 ppm in the spray liquor, barley seedlings cultivar Hanna, assessed after 6 days", "experimental": "The active compounds were prepared separately as a stock solution comprising 25 mg of active compound which was made up to 10 ml using a mixture of acetone and/or DMSO and the emulsifier Uniperol® EL (wetting agent having emulsifying and dispersing action based on ethoxylated alkylphenols) in a volume ratio solvent:emulsifier of 99:1. The mixture was then made up with water to 100 ml. The active compounds or mixtures were mixed or diluted with water to the desired concentration.\nUse example—activity against net blotch of barley caused by Pyrenophora teres, 1 day protective application\nLeaves of potted barley seedlings of the cultivar “Hanna” were sprayed to runoff point with an aqueous suspension having the concentration of active compound stated below. 24 hours after the spray coating had dried on, the test plants were inoculated blotch pathogen. […] After 6 days, the extent of the development of the disease was determined visually in % infection of the entire leaf area.\nThe visually determined values for the percentages of infected leaf areas were converted into efficacies in % of the untreated control:\nThe efficacy (E) is calculated as follows using Abbot's formula: E=(1−α/β)·100 • α corresponds to the fungal infection of the treated plants in % and • β corresponds to the fungal infection of the untreated (control) plants in % […]"}
{"smiles": "CC1CCN(c2c(-c3c(F)cc(F)cc3F)c(Cl)nc3ncnn23)CC1", "note": "[I, 5-chloro-7-(4-methylpiperidin-1-yl)-6-(2,4,6-trifluorophenyl)[1,2,4]tri-azolo[1,5-a]pyrimidine]", "values": [{"measurement": "Efficacy in % of the untreated control", "value": 72, "unit": "%"}]}
